In US10617694B2 (priority 2016, dated 2020):
Where two headings read alike, the source gives them in different places.

Tests used:
[1] = tested on: patients with obstructive sleep apnea; test: Table 1 summary of efficacy and side effects in sleep apnea, compared with acetazolamide, topiramate and zonisamide data; type: in vivo, human; parameters: key to Side effect paresthesia (P) (scale 0-3) / Side effect cognitive dysfunction (C) (scale 0-3): 1 = none; 2 = low; 3 = medium; 4 = high; Reduction in AHI: concentration or dose not given beside the values; conditions: for Side effect total rating (T) (scale 0-3): T = (P + 2C)/3, Table 1; for Reduction in AHI: own data: sultiame Examples 1 and 2 (n = 3); for Reduction in AHI / Efficacy AHI reduction (rating 0-3) / Side effect cognitive dysfunction (C) (scale 0-3) / Side effect paresthesia (P) (scale 0-3): acetazolamide Example 2; for Efficacy AHI reduction (rating 0-3) / Side effect cognitive dysfunction (C) (scale 0-3) / Side effect paresthesia (P) (scale 0-3): own data: sultiame Examples 1 and 2, topiramate unpublished data
Text: The results from Example 1 and 2 are summarized in table 1, below, where the results are further compared with data reflecting the effect of acetazolamide, topiramate and zonisamide in sleep apnea.

[2] = tested on: patients with obstructive sleep apnea; parameters: key to Side effect paresthesia (P) (scale 0-3) / Side effect cognitive dysfunction (C) (scale 0-3): 1 = none; 2 = low; 3 = medium; 4 = high; conditions: cited from earlier work; for Reduction in AHI / Reported adverse events. Frequency (n/patient): literature: acetazolamide meta data from 9 publications (n = 268), zonisamide Eskandari et al. (n = 13); for Efficacy AHI reduction (rating 0-3) / Side effect cognitive dysfunction (C) (scale 0-3) / Side effect paresthesia (P) (scale 0-3): literature: acetazolamide meta data, zonisamide Eskandari et al.
Carbonic anhydrase (CA) = test: Carbonic anhydrase activity in venous blood from a patient with obstructive sleep apnea (pH curve AUC); type: biochemical, human; conditions: diluted hemolysed blood of one OSA patient
Experimental: Carbonic anhydrase (CA) activity was assessed in human plasma from an apnea patient using a method previously described in detail (Teng et al, Sleep 2016). […] The blood sample (antecubital vein) was collected in an EDTA-coated tube, stored within 30 min at −20° C. and subsequently transferred to −70° C. Prior to analysis, the sample was slowly thawed, refrozen and re-thawed on ice in order to obtain hemolysis. The assay was adapted from a method previously described by Everaert et al (ref in Teng et al, Sleep 2016). In detail, a buffer consisting of 0.02M HEPES, 0.02M MES, 0.035M KCl and 0.015M NaCl with a balanced capacity in the pH 6-8 range was prepared. The subsequent analysis was conducted on ice in order to maintain a temperature of around 0-1° C. A separate solution constituting of 200 ml of 0-1° C. distilled water was continuously flushed with 100% CO2 and kept at 0-1° C. for at least 30 min. […] The pH in the reaction vessel was continuously monitored at 1 Hz during 120 s. […] The intra- and inter assay variability was 5.0% and 7.6%, respectively. pH curves were plotted and analysed (FIG. 1). In order to reflect time of the catalysed reaction the area under the curve (AUC, range 802-837) was calculated as the sum of all pH assessments during 120 sec. […]

[3] = tested on: subjects with obstructive sleep apnea; test: Long term effect of sultiame and acetazolamide in obstructive sleep apnea, sleep studies (Example 2); conditions: for AHI at follow-up: sultiame 200 mg single daily dose for three months
[4] = tested on: patient with obstructive sleep apnea; test: Repeated dosing of sultiame in obstructive sleep apnea, repeated sleep studies (Example 1); type: in vivo, human; conditions: for central AHI: baseline 3.2 n/h; for obstructive AHI: baseline 12.4 n/h; for AHI: baseline 16.6 n/h; for lowest saturation: baseline 87%; for mean oxygen saturation: baseline 95.3%
Text: Person, BMI 28.3 kg/m^2. The subject was a non-smoker and there was no history of cardiovascular or metabolic disease and no regular medication. This subject presented with a history of snoring, witnessed apneas, and increased daytime sleepiness. They had previously tested both CPAP and mandibular advancement therapy with moderate regression of symptoms. The subject had experienced intolerable side effects including dry airways and sneezing caused by CPAP therapy. They had experienced discomfort from the temporomandibular joints following use of an intraoral device for mandibular advancement.
There had been a weight gain corresponding to 2 kg during the last three years.
It was decided that sultiame should be tested. Repeated sleep studies were undertaken before and after therapy with sultiame.
This second assessment provided the following values: AHI 9.8 n/h (central AHI 2.2 n/h and obstructive AHI 7.6/h), mean oxygen saturation 95.8%, lowest saturation 89%, and periodic breathing pattern 10.1 minutes.
There had been a weight reduction corresponding to 1.2 kg

healthy volunteers = test: Clinical trial on tolerability of a high dose of sultiame in healthy volunteers; type: in vivo, human
Experimental: Most earlier clinical trials have been carried out in patients diagnosed with epilepsy. The goal of this study was to investigate the tolerability of sultiame in non-epileptic patients.
The trial involved 16 healthy volunteers. […] The administration was carried out without ramping up the dose. There were only two reports of adverse events in this group of 16 volunteers (32 dosing occasions, 12.5% of individuals or 6.25% of dosing occasions). These adverse events were limited to short periods of headache, which occurred when the drug was administered without food. The headache resolved within a short time frame.

[5] = cited from earlier work
[6] = own data: acetazolamide Example 2, topiramate unpublished data (n = 4)
[7] = topiramate unpublished data (n = 4)
[8] = 100 mg orally once daily, after 5 days
[9] = sultiame 200 mg daily for three months, both subjects

NS(=O)(=O)Cc1noc2ccccc12 [Zonisamide]
Side effect total rating (T) (scale 0-3) [1]: 3.3 | Reduction in AHI [2]: 20.7% | Reported adverse events. Frequency (n/patient) [2]: 0.44/patient | Reduction in AHI ([2]; listed as zonisamide): 20.7% | Efficacy AHI reduction (rating 0-3) [2]: 1 (5-<30% = 1) | Side effect cognitive dysfunction (C) (scale 0-3) [2]: 4 | Side effect paresthesia (P) (scale 0-3) [2]: 2

CC(=O)Nc1nnc(S(N)(=O)=O)s1 [Acetazolamide]
Side effect total rating (T) (scale 0-3) [1]: 2.7 | Reported adverse events. Frequency (n/patient) [1, 6]: 1.0/patient | Reduction in AHI [1, 7]: 28.0% | Efficacy AHI reduction (rating 0-3) [1]: 1 (5-<30% = 1) | Side effect cognitive dysfunction (C) (scale 0-3) [1]: 2 | Side effect paresthesia (P) (scale 0-3) [1]: 4 | CA activity after compound (peak inhibition), arbitrary units 850-AUC (Carbonic anhydrase (CA); 0-1° C., 120 s, activity without compound 32, concentrations 1×10^−11 to 5×10^−9 M): 19.5 units | reduction of CA activity (Carbonic anhydrase (CA); reduction from 32 units): 39% | Reduction in AHI [2]: 37.3% | Reported adverse events. Frequency (n/patient) [2]: 1.08/patient | Reduction in AHI ([2]; listed as acetazolamide): 37.3% | Efficacy AHI reduction (rating 0-3) [2]: 2 (30-<50% = 2) | Side effect cognitive dysfunction (C) (scale 0-3) [2]: 2 | Side effect paresthesia (P) (scale 0-3) [2]: 4 | side effects: paraesthesia ([3]; acetazolamide 500 mg o.d., both subjects): both subjects developed peripheral paraesthesia | oxygen desaturation index (ODI) ([3]; first subject, acetazolamide 500 mg o.d., 10 days after start, before 16.6 n/h): 12.6 n/h | AHI ([3]; first subject, acetazolamide 500 mg o.d., 10 days after start, before 17.4 n/h): 13.4 n/h | oxygen desaturation index (ODI) ([3]; second subject, acetazolamide 500 mg o.d., 16 days after start, before 12.6 n/h): 9.2 n/h | AHI ([3]; second subject, acetazolamide 500 mg o.d., 16 days after start, before 15.2 n/h): 10.2 n/h

NS(=O)(=O)c1ccc(N2CCCCS2(=O)=O)cc1 [Sultiame]
Side effect total rating (T) (scale 0-3) [1]: 1 | Reduction in AHI [1, 7]: 62.7% | Reduction in AHI ([1]; topiramate unpublished data (n = 4), listed as sultiame): 62.7% | Efficacy AHI reduction (rating 0-3) [1]: 3 (≥50% = 3) | Side effect cognitive dysfunction (C) (scale 0-3) [1]: 1 | Side effect paresthesia (P) (scale 0-3) [1]: 1 | Reported adverse events. Frequency (n/patient) ([1]; sultiame, Examples 1 and 2 (n = 3)): 0% (AHI reduction 0-5 < % = 0) | adverse effects after administration ([1]; sultiame, patients with obstructive sleep apnea, Examples 1 and 2): not observed | daytime symptoms of sleepiness [4, 8]: general resolution of daytime symptoms of sleepiness | central AHI [4, 8]: 2.2 n/h | obstructive AHI [4, 8]: 7.6 h⁻¹ | AHI [4, 8]: 9.8 n/h | lowest saturation [4, 8]: 89% | mean oxygen saturation [4, 8]: 95.8% | periodic breathing pattern ([4]; 100 mg orally once daily, after 5 days, baseline 14.3 minutes): 10.1 min | central AHI ([4]; 200 mg once daily for 14 days): 1.2 n/h | obstructive AHI ([4]; 200 mg once daily for 14 days): 3.0 n/h | AHI ([4]; 200 mg once daily for 14 days): 4.2 n/h | lowest saturation ([4]; 200 mg once daily for 14 days): 90% | mean oxygen saturation ([4]; 200 mg once daily for 14 days): 96.7% | periodic breathing pattern duration ([4]; 200 mg once daily for 14 days, baseline 14.3 minutes): 2.8 min | dose dependence of AHI reduction ([4]; 200 mg once daily versus 100 mg once daily): reduced AHI in a dose-dependent manner | tolerability at high doses (healthy volunteers; 200 mg without ramping up the dose, healthy volunteers): excellent tolerability | reports of adverse events (short periods of headache, drug administered without food) (healthy volunteers; 200 mg, 16 volunteers, 32 dosing occasions): two | adverse events, % of dosing occasions (healthy volunteers; 200 mg, 32 dosing occasions, 16 healthy volunteers): 6.25% | adverse events, % of individuals (healthy volunteers; 200 mg, two times (with and without prior food intake), 16 healthy volunteers): 12.5% | half-life in plasma [5]: about 24 hrs | AHI at follow-up ([3]; first subject, day 89, before 17.4 n/h): 7.6 n/h | AHI at follow-up ([3]; second subject, day 90, before 15.2 n/h): 6.5 n/h | daytime sleepiness ([3]; sultiame 200 mg daily for three months, both cases): reduction of daytime sleepiness | side effects: paraesthesia [3, 9]: not reported | snoring [3, 9]: reduced snoring | tolerability [3, 9]: well tolerated by both subjects | effectiveness in decreasing sleep apnea versus acetazolamide ([3]; sultiame 200 mg daily versus acetazolamide 500 mg o.d.): considerably more effective than acetazolamide

CC1(C)O[C@@H]2[C@@H](CO[C@@]3(COS(N)(=O)=O)OC(C)(C)O[C@@H]23)O1 [Topiramate]
Side effect total rating (T) (scale 0-3) [1]: 3.7 | Reported adverse events. Frequency (n/patient) [1, 6]: 0.75/patient | Reduction in AHI [1, 7]: 28.0% | Reduction in AHI ([1]; topiramate unpublished data (n = 4), listed as topiramate): 28.0% | Efficacy AHI reduction (rating 0-3) [1]: 1 (5-<30% = 1) | Side effect cognitive dysfunction (C) (scale 0-3) [1]: 4 | Side effect paresthesia (P) (scale 0-3) [1]: 3
